Results published in PubChem BioAssay (NCI).
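Following 48 hours of exposure in 96-well plates, responses at five concentrations were used to interpolate endpoints linearly. At the TGI there is no net growth.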

Tests used:
Assay in all cases: NCI tumour cell line growth inhibition, 48 h
[1] = test system: SK-OV-3 ovarian
[2] = test system: NCI/ADR-RES ovarian
[3] = test system: LOX IMVI melanoma
[4] = test system: IGROV1 ovarian
[5] = test system: CCRF-CEM leukemia
[6] = test system: PC-3 prostate
[7] = test system: NCI-H522 lung
[8] = test system: COLO 205 colon
[9] = test system: 786-0 renal
[10] = test system: MDA-MB-231 breast
[11] = test system: T-47D breast
[12] = test system: KM12 colon
[13] = test system: SF-539 CNS
[14] = test system: HCC-2998 colon
[15] = test system: DU-145 prostate
[16] = test system: SNB-19 CNS
[17] = test system: HCT-116 colon
[18] = test system: SN12C renal
[19] = test system: CAKI-1 renal
[20] = test system: HOP-92 NSCLC
[21] = test system: A549 NSCLC
[22] = test system: SF-295 CNS
[23] = test system: SF-268 CNS
[24] = test system: EKVX NSCLC
[25] = test system: K-562 leukemia
[26] = test system: MDA-MB-435
[27] = test system: MDA-N
[28] = test system: SR leukemia
[29] = test system: MOLT-4 leukemia
[30] = test system: OVCAR-4 ovarian
[31] = test system: UO-31 renal
[32] = test system: MCF7 breast
[33] = test system: A498 renal
[34] = test system: TK-10 renal
[35] = test system: SW-620 colon
[36] = test system: UACC-257 melanoma
[37] = test system: OVCAR-3 ovarian
[38] = test system: M14 melanoma
[39] = test system: HS 578T breast
[40] = test system: NCI-H460 lung
[41] = test system: HCT-15 colon
[42] = test system: ACHN renal
[43] = test system: MALME-3M melanoma
[44] = test system: U251 CNS
[45] = test system: BT-549 breast
[46] = test system: RPMI-8226 leukemia
[47] = test system: HT29 colon
[48] = test system: SK-MEL-28 melanoma
[49] = test system: HL-60(TB) leukemia
[50] = test system: SK-MEL-5 melanoma
[51] = test system: NCI-H226 lung
[52] = test system: NCI-H23 lung
[53] = test system: HOP-62 NSCLC
[54] = test system: OVCAR-8 ovarian
[55] = test system: RXF 393 renal
[56] = test system: SK-MEL-2 melanoma
[57] = test system: OVCAR-5 ovarian
[58] = test system: UACC-62 melanoma
[59] = test system: SNB-75 CNS

## CNc1ccc(S(=O)Nc2ccc(OC)cc2)cc1 (stereo unspecified)
[1]
  TGI: > 100 µM
[2]
  TGI: > 100 µM
[3]
  TGI: > 100 µM
[4]
  TGI: > 100 µM
[5]
  TGI: > 100 µM
[6]
  TGI: > 100 µM
[7]
  TGI: > 100 µM
[8]
  TGI: 91.4 µM
[9]
  TGI: > 100 µM
[10]
  TGI: > 100 µM
[11]
  TGI: > 100 µM
[12]
  TGI: 22.2 µM
[13]
  TGI: > 100 µM
[14]
  TGI: > 100 µM
[15]
  TGI: > 100 µM
[16]
  TGI: > 100 µM
[17]
  TGI: > 100 µM
[18]
  TGI: > 100 µM
[19]
  TGI: > 100 µM
[20]
  TGI: > 100 µM
[21]
  TGI: > 100 µM
[22]
  TGI: > 100 µM
[23]
  TGI: > 100 µM
[24]
  TGI: > 100 µM
[25]
  TGI: > 100 µM
[26]
  TGI: 70.1 µM
[27]
  TGI: > 100 µM
[28]
  TGI: > 100 µM
[29]
  TGI: > 100 µM
[30]
  TGI: > 100 µM
[31]
  TGI: 34.8 µM
[32]
  TGI: > 100 µM
[33]
  TGI: > 100 µM
[34]
  TGI: > 100 µM
[35]
  TGI: > 100 µM
[36]
  TGI: > 100 µM
[37]
  TGI: > 100 µM
[38]
  TGI: > 100 µM
[39]
  TGI: > 100 µM
[40]
  TGI: > 100 µM
[41]
  TGI: > 100 µM
[42]
  TGI: > 100 µM
[43]
  TGI: > 100 µM
[44]
  TGI: > 100 µM
[45]
  TGI: > 100 µM
[46]
  TGI: > 100 µM
[47]
  TGI: > 100 µM
[48]
  TGI: > 100 µM
[49]
  TGI: > 100 µM
[50]
  TGI: > 100 µM
[51]
  TGI: > 100 µM
[52]
  TGI: > 100 µM
[53]
  TGI: > 100 µM
[54]
  TGI: > 100 µM

## CC(C)(C)c1cc2c(O)c(c1)C(c1ccccc1)c1cc(C(C)(C)C)cc(c1O)Cc1cc(C(C)(C)C)cc(c1O)C(c1ccccc1)c1cc(C(C)(C)C)cc(c1O)C2 (stereo unspecified)
[2]
  TGI: > 100 µM
[3]
  TGI: > 100 µM
[4]
  TGI: > 100 µM
[5]
  TGI: > 100 µM
[6]
  TGI: > 100 µM
[7]
  TGI: > 100 µM
[8]
  TGI: > 100 µM
[9]
  TGI: > 100 µM
[55]
  TGI: > 100 µM
[10]
  TGI: > 100 µM
[11]
  TGI: > 100 µM
[56]
  TGI: > 100 µM
[12]
  TGI: > 100 µM
[13]
  TGI: > 100 µM
[14]
  TGI: > 100 µM
[15]
  TGI: > 100 µM
[16]
  TGI: > 100 µM
[17]
  TGI: > 100 µM
[18]
  TGI: > 100 µM
[19]
  TGI: > 100 µM
[20]
  TGI: > 100 µM
[21]
  TGI: > 100 µM
[22]
  TGI: > 100 µM
[23]
  TGI: > 100 µM
[24]
  TGI: > 100 µM
[25]
  TGI: > 100 µM
[26]
  TGI: > 100 µM
[27]
  TGI: > 100 µM
[28]
  TGI: > 100 µM
[29]
  TGI: > 100 µM
[30]
  TGI: > 100 µM
[31]
  TGI: > 100 µM
[32]
  TGI: > 100 µM
[33]
  TGI: > 100 µM
[34]
  TGI: > 100 µM
[35]
  TGI: > 100 µM
[36]
  TGI: > 100 µM
[37]
  TGI: > 100 µM
[38]
  TGI: > 100 µM
[39]
  TGI: > 100 µM
[40]
  TGI: > 100 µM
[41]
  TGI: > 100 µM
[42]
  TGI: > 100 µM
[44]
  TGI: > 100 µM
[45]
  TGI: > 100 µM
[57]
  TGI: > 100 µM
[47]
  TGI: > 100 µM
[58]
  TGI: > 100 µM
[48]
  TGI: > 100 µM
[49]
  TGI: > 100 µM
[50]
  TGI: > 100 µM
[52]
  TGI: > 100 µM
[53]
  TGI: > 100 µM
[54]
  TGI: > 100 µM

## Nc1ccccc1C(=O)CCc1c[nH]c2ccccc12
[1]
  TGI: > 100 µM
[2]
  TGI: > 100 µM
[3]
  TGI: > 100 µM
[4]
  TGI: > 100 µM
[6]
  TGI: > 100 µM
[7]
  TGI: > 100 µM
[9]
  TGI: > 100 µM
[10]
  TGI: > 100 µM
[11]
  TGI: > 100 µM
[56]
  TGI: > 100 µM
[12]
  TGI: > 100 µM
[13]
  TGI: > 100 µM
[14]
  TGI: > 100 µM
[15]
  TGI: > 100 µM
[16]
  TGI: > 100 µM
[17]
  TGI: > 100 µM
[18]
  TGI: > 100 µM
[59]
  TGI: > 100 µM
[20]
  TGI: 55.2 µM
[21]
  TGI: > 100 µM
[22]
  TGI: > 100 µM
[23]
  TGI: > 100 µM
[24]
  TGI: > 100 µM
[25]
  TGI: > 100 µM
[26]
  TGI: > 100 µM
[27]
  TGI: > 100 µM
[28]
  TGI: > 100 µM
[29]
  TGI: > 100 µM
[30]
  TGI: > 100 µM
[31]
  TGI: > 100 µM
[32]
  TGI: > 100 µM
[33]
  TGI: > 100 µM
[34]
  TGI: > 100 µM
[35]
  TGI: > 100 µM
[36]
  TGI: > 100 µM
[37]
  TGI: > 100 µM
[38]
  TGI: > 100 µM
[39]
  TGI: > 100 µM
[40]
  TGI: > 100 µM
[41]
  TGI: > 100 µM
[42]
  TGI: > 100 µM
[43]
  TGI: > 100 µM
[44]
  TGI: > 100 µM
[45]
  TGI: > 100 µM
[57]
  TGI: > 100 µM
[46]
  TGI: > 100 µM
[47]
  TGI: > 100 µM
[58]
  TGI: > 100 µM
[48]
  TGI: > 100 µM
[49]
  TGI: > 100 µM
[51]
  TGI: > 100 µM
[53]
  TGI: > 100 µM
[54]
  TGI: > 100 µM
